Legend:
[1] = Cis-aconitate decarboxylase (CAD) activity assay of purified Flag-IRG1; format: biochemical, Mus musculus; conditions: peak activity fraction; 1 mM cis-aconitate, 30° C., 40 min, pH 7.1
Experimental: HEK293T cells were extracted 48 hours after transfection by scraping them into a lysis buffer containing 25 mM Hepes, pH 7.1 and 1× protease inhibitor cocktail (Roche). After two freeze/thaw cycles, cell extracts were incubated for 30 min on ice in the presence of DNAse I (200 U/ml extract; Roche Applied Science) and 10 mM MgSO4. The crude cell extracts were centrifuged for 5 min at 16000×g (4° C.) and pellets were resuspended in lysis buffer for SDS-PAGE analysis. Flag-IRG1 was purified from the supernatant using the Flag®M purification kit, according to the manufacturer's instructions (Sigma Aldrich). […] Protein concentration was measured by the Bradford assay using Bradford reagent (Bio-Rad).
Cis-aconitate decarboxylase activity was measured by incubating cell extracts or purified protein fractions (10 μl) at 30° C. and for 40 min in a reaction mixture containing 25 mM Hepes, pH 7.1 and 1 mM cis-aconitate in a total volume of 100 μl. […] The dry residue was derivatized and itaconic acid was quantified by GC-MS as described below. Itaconic acid concentrations were calculated by comparing the corresponding GC/MS signals obtained in samples with the one obtained after injection of known amounts of itaconic acid standards. […]
Cis-aconitate decarboxylase activity was measured in cell extracts and purification fractions. […]

[2] = tested on: Salmonella enterica serovar Typhimurium; test: S. enterica growth in liquid minimal medium with acetate as unique carbon source; format: cell-based
Experimental: To directly investigate the effect of itaconic acid on bacterial replication, S. enterica was grown in liquid minimal medium supplemented with acetate as the unique carbon source and various concentrations of itaconic acid. […] S. enterica was grown in liquid medium with acetate as unique carbon source in the presence of increasing concentrations of itaconic acid (5, 10, 50, 100 mM). The optical density (OD) was measured every hour to record the bacterial growth. Curves are calculated in % relative to time 0 and represent the mean of three independent experiments.

[3] = tested on: bacterial isocytrate lyase (ICL); conditions: literature reports; cited from earlier work
Streptococcus pyogenes = test: Bacterial phagocytosis and killing assay in siRNA-transfected RAW264.7 macrophages infected with S. pyogenes; format: cell-based; conditions: streptococci compared with Salmonella
Experimental: Bacterial phagocytosis and killing assay were conducted to test the influence of the uptake of S. pyogenes by transfected (siRNA IRG1) mouse macrophages (RAW264.7 cell line) after 1 h, 2 h and 4 h of incubation.
Transfected RAW264.7 macrophages (with unspecific siRNA or IRG1 specific siRNA) were infected with Streptococcus pyogenes strain A20 at a multiplicity of infection (MOI) of 10:1 (10 bacteria per macrophage) and incubated for 1 h at 37° C., 5% CO2. Macrophages were then washed with sterile PBS, resuspended in complete medium containing […] gentamicin to kill non ingested bacteria and further incubated for 2 h at 37° C., 5% CO2. Macrophages were then disrupted with dH2O to release intracellular bacteria (this was considered time 0 h relative to gentamicin treatment) or 1, 2, 4 h later (this was considered time 1, 2, 4 h relative to gentamicin treatment) and the amount of viable intracellular bacteria was determined by plating on blood agar.
RAW264.7 cells were transfected with either siRNA specific for IRG1 or with siRNA Ctr. […] Macrophages were then disrupted with H2O to release intracellular bacteria and the amount of viable intracellular bacteria was determined by plating on blood agar. […]

Compound | CAD specific activity [1] | itaconic acid concentration with significant effect on growth inhibition ([2]; 5, 10, 50, 100 mM tested, OD every hour) | bacterial growth inhibition ([2]; increasing concentrations of itaconic acid) | inhibition of isocitrate lyase [3] | antimicrobial effect of itaconic acid (Streptococcus pyogenes)
Flag-IRG1: FLAG-tagged IRG1 protein purified from HEK293T cells transfected with a pCMV6-Entry-IRG1 expression plasmid | about 40 nmol min^−1 mg protein^−1 |  |  |  | 
C=C(CC(=O)O)C(=O)O [itaconic acid] |  | higher than 10 mM | dose-dependent growth inhibition | inhibits | less pronounced in streptococci than in Salmonella

From patent US20150086986A1, “METHOD TO PREDICT THE PRESENCE OF INFLAMMATION OR ITACONIC ACID, IRG1 AND/OR PROTEIN IRG1 IN A SUBJECT AND PHARMACEUTICAL COMPOSITION FOR TREATING OR PREVENTING INFLAMMATION” (priority 2011, published 2015)
